From publication PMC5384453, “A multi-functional PEGylated gold(III) compound: potent anti-cancer properties and self-assembly into nanostructures for drug co-delivery” (Chemical Science, 2016)
Like-named read-outs stand apart in the source and are kept apart here.

Tests used:
A2780 = experiment: In vitro cytotoxicity, MTT assay; format: cell-based, human
Procedure: (§1) In vitro cytotoxicity assays. HeLa, NCI-H460, HCT116, A2780, A2780cis and
(§2) cells), respectively, were seeded in 96-well plates for 24 h. The cells were then treated with a serial concentration of gold(III) complexes and incubated at 37 °C under a 5% CO2 atmosphere for 72 h. For nanostructures of 1, 2 and NC1, they were dissolved in
(§3) cisplatin were dissolved in culture medium-DMSO solution mixture (99:1, v/v).
(§4) After incubation for 72 h, MTT in PBS solution (5 mg/mL, 10 μL) was added to each well. The plates were incubated at 37 °C under a 5% CO2 atmosphere for another 4 h, and the cells were lysed by the addition of SDS solution (10%, w/w) with 0.01 M HCl (100 μL). After incubation in dark at 37 °C overnight, the cell viability after treatment was determined by a microtitre plate reader monitoring at the absorbance at 590 nm,

CCD-19Lu = experiment: In vitro cytotoxicity, MTT assay; format: cell-based, human; details: 72 h incubation
Procedure: as §1, §2, §3, §4

NCI-H460 = experiment: In vitro cytotoxicity, MTT assay; format: cell-based, human
Procedure: as §1, §2, §3, §4

HeLa = experiment: In vitro cytotoxicity, MTT assay; format: cell-based, human; details: for IC50: HeLa
Procedure: as §1, §2, §3, §4

HCT116 cells = experiment: Hydrolysis in live cells, UPLC-QTOF-MS of cell lysates; format: in vitro ADME, human; details: 2 μM, 24 h
Procedure: Hydrolysis of the gold(III) complexes in live cells was examined by ultra-performance liquid chromatography coupled quadrupole-time-of-flight mass spectrometry (UPLC-QTOF-MS). Colon cancer cells (HCT116) were treated with 1, 2 and 3 (2 μM) for 24 h, harvested and lysed in an acetonitrile–water solution mixture (3 : 1, v/v) prior to UPLC-QTOF-MS analysis. […] Therefore, the peak is attributable to the major metabolite of 1 formed in HCT116 cells. […] This should be attributable to the higher stability of the amide bond versus the ester bond in vitro. […]
which reflected the amount of blue formazan formed. IC50 values were then determined by CompuSyn S6 from three independent measurements.
Study on the release of hydrolyzed product from 1 and 2 in aqueous buffer solutions by ICP-MS. The nanostructures of gold(III) complex was dissolved in PBS solution (pH 7.4; 1 mg/mL) or sodium acetate buffer solution (pH 4.0; 1 mg/mL) and was dialyzed against 1 L of the buffer solution at 37 °C using semipermeable minidialysis tubes (molecular weight cut-off = 1,000 Da; GE Healthcare). At a predetermined time, an aliquot of solution was removed and dissolved in HNO3/HCl solution mixture (9:1, v/v; volume of aliquot: volume of acid mixture = 1:3). The solution mixture was heated at 65 °C with shaking overnight, and the gold content was determined by ICP-MS from three independent aliquots.
Study on the hydrolysis of 1 and 2 in aqueous buffer solutions by 1H NMR. […]
The flow rate was 0.4 mL/min and the injection volume was 2 µL. The UPLC-QTOF-MS chromatograms of 1, 3, 4 and solvent control in acetonitrile were also recorded for the interpretation of UPLC-QTOF-MS chromatograms of the cell lysate. […]
Au1a (2 µM; with 1 vol% DMSO). […] An aliquot of the cell suspension was subjected to Bio-rad protein assay with a microtitre plate reader at the absorbance at 595 nm, using bovine serum albumin as the protein standard. […] The solution mixture was heated at 65 °C with shaking overnight, and the gold content was determined by ICP-MS. […]

HCT116 = experiment: In vitro cytotoxicity, MTT assay; format: cell-based, human
Procedure: as §1, §2, §3, §4

MIHA = experiment: In vitro cytotoxicity, MTT assay; format: cell-based
Procedure: as §1, §2, §3, §4

A2780adr = experiment: In vitro cytotoxicity, MTT assay; format: cell-based, human; details: for IC50: A2780adr
Procedure: as §1, §2, §3, §4

A2780cis = experiment: In vitro cytotoxicity, MTT assay; format: cell-based, human
Procedure: as §1, §2, §3, §4

NCM460 = experiment: In vitro cytotoxicity, MTT assay; format: cell-based, human; details: 72 h incubation
Procedure: as §1, §2, §3, §4

[1] = 72 h, read-out: Total dose at IC50
[2] = MTT assay, 72 h incubation, read-out: IC50

[Au(TPP–COO–PEG5000–OCH3)]Cl [Compound 1]
IC50 (A2780; A2780, MTT assay, 72 h incubation): 510 ± 90 nM
Toxicity toward cancer cells compared to that toward CCD-19Lu cells, A2780 (A2780; IC50 of CCD-19Lu cells / IC50 of A2780): 29.8
Toxicity toward cancer cells compared to that toward MIHA cells, A2780 (A2780; IC50 of MIHA cells / IC50 of A2780): 28.4
Toxicity toward cancer cells compared to that toward NCM460 cells, A2780 (A2780; IC50 of NCM460 cells / IC50 of A2780): 32.2
IC50 (CCD-19Lu): 15200 ± 1930 nM
Toxicity toward cancer cells compared to that toward CCD-19Lu cells, NCI-H460 (NCI-H460; IC50 of CCD-19Lu cells / IC50 of NCI-H460): 17.9
Toxicity toward cancer cells compared to that toward MIHA cells, NCI-H460 (NCI-H460; IC50 of MIHA cells / IC50 of NCI-H460): 17.1
Toxicity toward cancer cells compared to that toward NCM460 cells, NCI-H460 (NCI-H460; IC50 of NCM460 cells / IC50 of NCI-H460): 19.3
IC50 (NCI-H460; NCI-H460, MTT assay, 72 h incubation): 850 ± 70 nM
IC50 (HeLa; 72 h, read-out: 1 at IC50): 1910 nM
IC50 (HeLa; [1]): 1910 nM
IC50 (HeLa; [2]): 1910 ± 480 nM
Toxicity toward cancer cells compared to that toward CCD-19Lu cells, HeLa (HeLa; IC50 of CCD-19Lu cells / IC50 of HeLa): 8.0
Toxicity toward cancer cells compared to that toward MIHA cells, HeLa (HeLa; IC50 of MIHA cells / IC50 of HeLa): 7.6
Toxicity toward cancer cells compared to that toward NCM460 cells, HeLa (HeLa; IC50 of NCM460 cells / IC50 of HeLa): 8.6
hydrolysis / release of [Au(TPP–COOH)]+ in cells (HCT116 cells): hydrolysis of the ester bond of 1 in HCT116 cells to form [Au(TPP–COOH)]^+
IC50 (HCT116; HCT116, MTT assay, 72 h incubation): 390 ± 30 nM
Toxicity toward cancer cells compared to that toward CCD-19Lu cells, HCT-116 (HCT116; IC50 of CCD-19Lu cells / IC50 of HCT-116): 39.0
Toxicity toward cancer cells compared to that toward MIHA cells, HCT-116 (HCT116; IC50 of MIHA cells / IC50 of HCT-116): 37.2
Toxicity toward cancer cells compared to that toward NCM460 cells, HCT-116 (HCT116; IC50 of NCM460 cells / IC50 of HCT-116): 42.1
IC50 (MIHA; 72 h, read-out: 1 at IC50): 14500 nM
IC50 (MIHA; [1]): 14500 nM
IC50 (MIHA; [2]): 14500 ± 2550 nM
IC50 (A2780adr; 72 h, read-out: 1 at IC50): 1510 nM
IC50 (A2780adr; [1]): 1510 nM
IC50 (A2780adr; [2]): 1510 ± 400 nM
Resistance found in A2780adr (A2780adr; IC50 of A2780adr cells / IC50 of A2780 cells): 2.94
Toxicity toward cancer cells compared to that toward CCD-19Lu cells, A2780adr (A2780adr; IC50 of CCD-19Lu cells / IC50 of A2780adr): 10.1
Toxicity toward cancer cells compared to that toward MIHA cells, A2780adr (A2780adr; IC50 of MIHA cells / IC50 of A2780adr): 9.1
Toxicity toward cancer cells compared to that toward NCM460 cells, A2780adr (A2780adr; IC50 of NCM460 cells / IC50 of A2780adr): 10.9
IC50 (A2780cis; A2780cis, MTT assay, 72 h incubation): 640 ± 30 nM
Resistance found in A2780cis (A2780cis; IC50 of A2780cis cells / IC50 of A2780 cells): 1.27
Toxicity toward cancer cells compared to that toward CCD-19Lu cells, A2780cis (A2780cis; IC50 of CCD-19Lu cells / IC50 of A2780cis): 23.8
Toxicity toward cancer cells compared to that toward MIHA cells, A2780cis (A2780cis; IC50 of MIHA cells / IC50 of A2780cis): 22.7
Toxicity toward cancer cells compared to that toward NCM460 cells, A2780cis (A2780cis; IC50 of NCM460 cells / IC50 of A2780cis): 25.6
IC50 (NCM460): 16400 ± 2450 nM
